Here are results for 1 compound from patent publication US11197863B2, “Inhibitors of polo-like kinase 4 (PLK4) for treating pediatric embryonal tumors” (ANN AND ROBERT H. LURIE CHILDREN'S HOSPITAL OF CHICAGO, priority 2017, dated 2021).

For data set [1], the system named is DAOY and D283 cells. The data set is described as follows: MTT proliferation assay, MB cell lines. Type of data set: cell-based, human. The note with it: 72 hours of treatment vs 0.1% DMSO. The procedure:
(§1) To evaluate cell proliferation, we used TACS MTT Cell Proliferation Assays (Trevigen, USA). We plated 2×10^3 cells on each well of a 96-well plate and the absorbance was measured after 48 and 72 hr at concentrations of 10, 50, 100, 200, and 500 nM. Each experiment was performed in triplicates.
(§2) For proliferation assay DAOY was plated with 5×10^4 cells per well and D283 was plated with 5×10^5 cells per well.

The test system of data set [2] is MON cells. The data set is described as follows: Time-lapse assay, nuclear area and volume. Type of data set: cell-based, human. As to conditions: 100 nM, 48 hours, p-value<0.001. The procedure: Cells were plated in 35 mm glass bottom dishes (Cat #150682, Thermo Fisher Scientific, USA) in normal growth medium and allowed to grow overnight. After the treatment medium was added, imaging began immediately. Brightfield images (20×) were taken every 6 minutes at 10 predetermine fields for 48 hours. Images were processed in ZEN 2.3 software (Zeiss, USA).

For data set [3], the system named is MON, G401, BT-12 and BT-16 cells. Kind of data set: Apoptosis by flow cytometry (Annexin V / PI). Type of data set: cell-based, human. As to conditions: 100 nM, 48 hours vs 0.1% DMSO. The procedure:
Cells were treated with various concentrations of […] and 0.1% DMSO (control) for evaluation of the impact of treatment on induction of apoptosis. Live cells were stained with Annexin V as an indicator of early apoptosis and Propidium Iodide (PI—Thermo Fisher Scientific, USA) for detection of late apoptosis and necrosis, according to manufacturer's instructions (Thermo Fisher Scientific, USA). Flow cytometric analysis was performed on a BD Fortessa instrument (BD Biosciences, USA) within an hour of staining. Data was analyzed using Modfit LT from Verity Software House. All experiments were performed in triplicates.

Data set [4] has as its system RT and MB cell lines. The data set is described as follows: Cell cycle analysis by flow cytometry (polyploidy). The format is cell-based, human. As to conditions: multiple RT and MB cell lines. The procedure: (§3) Cell cycle evaluation was performed by staining the cells with PI (Thermo Fisher Scientific, USA) according to manufacturer's instructions. […] Data was analyzed using Modfit LT from Verity Software House. Experiments were performed in triplicates.

Data set [5] relates to HFF-SCC058 human fibroblasts. The data set is described as follows: Cell cycle analysis by flow cytometry (polyploidy). Type of data set: cell-based. The protocol: as §3
Data set [6] concerns the target Aurora kinase B (Homo sapiens, UniProt Q96GD4). The note with it: cited from earlier work.
Data set [7] concerns MON, G401, BT-12, and BT-16 cells. Kind of data set: Clonogenic assay, rhabdoid tumor cell lines. Type of data set: cell-based, human. As to conditions: 50-200 nM; analyzed 14 days after treatment. The procedure: (§4) For each cell line, 200 cells were seeded into six-well plates, incubated for 14 days, fixed with formalin, stained with Cresyl violet (ACROS Organics, USA), and the number of colonies counted using Image J software (www.imagej.nih.gov).
To evaluate the effect of the PLK4 mutation over cell survival, MON-PLK4-mutated cells were compared with MON-Cas9. […] Controls were treated with 0.1% DMSO. All experiments were performed in triplicates.

The conditions of data set [8]: phase I, adults, preliminary results; cited from earlier work.
Data set [9] deals with HFF-SCC058 human fibroblasts. The data set is described as follows: Invasion and migration assays (Transwell). The format is cell-based. As to conditions: 100 nM, 24 hr. The protocol:
Both migration and invasion were assessed using a 24-well Transwell chamber system (Corning, USA).[35] MON cells were plated at 20,000 per well for cell migration and at 50,000 per well coated with matrigel (200 μg/ml, 3 hr of solidification) for cell invasion. HFF-SCC058 cells were used as negative controls. […] All experiments were performed in triplicates.

For data set [10], the target named is MUSK (Homo sapiens, UniProt O15146). Kind of data set: Kinase activity screening (SelectScreen Kinase Profiling). The format is biochemical. The note with it: 10-point titration.
Sequence of MUSK (O15146 24-869): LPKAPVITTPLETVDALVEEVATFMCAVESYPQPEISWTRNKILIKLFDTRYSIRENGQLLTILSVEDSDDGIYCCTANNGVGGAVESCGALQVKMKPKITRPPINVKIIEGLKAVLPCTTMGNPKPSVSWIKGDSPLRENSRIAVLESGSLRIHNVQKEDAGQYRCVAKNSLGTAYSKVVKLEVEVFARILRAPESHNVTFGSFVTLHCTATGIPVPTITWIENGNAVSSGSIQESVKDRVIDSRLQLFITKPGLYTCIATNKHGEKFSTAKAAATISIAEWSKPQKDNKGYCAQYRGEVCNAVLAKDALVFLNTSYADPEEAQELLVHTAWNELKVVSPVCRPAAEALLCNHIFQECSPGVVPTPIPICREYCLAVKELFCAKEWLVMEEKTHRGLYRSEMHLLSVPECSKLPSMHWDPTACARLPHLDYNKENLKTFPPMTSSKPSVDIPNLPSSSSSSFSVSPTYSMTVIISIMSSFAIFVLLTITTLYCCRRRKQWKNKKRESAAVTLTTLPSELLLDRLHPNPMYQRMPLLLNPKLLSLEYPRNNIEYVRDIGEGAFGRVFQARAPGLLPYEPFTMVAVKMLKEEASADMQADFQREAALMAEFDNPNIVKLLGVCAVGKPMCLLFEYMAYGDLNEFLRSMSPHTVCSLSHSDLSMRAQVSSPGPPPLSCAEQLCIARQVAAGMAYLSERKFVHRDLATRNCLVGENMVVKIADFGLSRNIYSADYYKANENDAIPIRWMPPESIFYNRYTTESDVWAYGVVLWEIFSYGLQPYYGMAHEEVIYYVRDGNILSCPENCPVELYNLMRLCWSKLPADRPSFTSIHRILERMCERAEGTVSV
Description: (§5) These assays utilized various formats appropriate to the kinase, its substrate and its activity. Formats included the Z-LYTE™ Kinase Assay that determines the differential sensitivity of phosphorylated and non-phosphorylated peptide substrates to proteolytic cleavage using a FRET-based readout, the Adapta™ Universal Kinase Assay that employs a homogeneous, fluorescence-based immunoassay for the detection of ADP produced by kinases and the LanthaScreen™ Eu Kinase Binding Assay that utilizes an Alexa Fluor™ conjugated “tracer” and an Eu-labeled anti-tag antibody to measure binding of a compound to the kinase target [62].
Data set [11] relates to MON, G401, BT-12, and BT-16 cells. Kind of data set: MTT cell proliferation assay, rhabdoid tumor cell lines. The format is cell-based, human. As to conditions: all cell lines evaluated; 10-500 nM, 48 and 72 hr. The procedure: The expression of PLK4 (Hs00179514_m1) was verified by TaqMan GE assays (Thermo Fisher Scientific, USA) using the housekeeping gene GAPDH (Hs02758991_g1) as reference as previously described.[30] PLK4 inhibitor. […] Cell proliferation was evaluated by MTT assay and cell survival was evaluated by clonogenic assays using increasing concentrations of the drug in different time-points, as described below.
as §1

The test system of data set [12] is DAOY and D283 cells. The data set is described as follows: Colony formation assay, MB cell lines. The format is cell-based, human. The note with it: 50 nM. The procedure: as §4, §2
The subject of data set [13] is BT-12 AT/RT intracranial xenografts. The data set is described as follows: Intracranial AT/RT xenograft tumors. The format is in vivo, mice. As to conditions: 7.5 mg/kg/day oral for 21 days. The source says: Six-week-old female athymic mice (rnu/rnu genotype, BALB/c background) were purchased from Envigo (Harlan) and housed under aseptic conditions, which included filtered air and sterilized food, water, bedding, and cages. The Northwestern University Institutional Animal Care and Use Committee approved all animal protocols. The BT-12 AT/RT cell line, which has high expression of PLK4 was modified to express luciferase and injected intracranially in nude mice as previously described. Each mouse was injected with a cell suspension (10,000 cells/3 μL) into the right caudate putamen of the brain. […] Bioluminescence monitoring was performed twice a week throughout the course of the experiment for quantitative measurement of tumor growth and response to therapy. Kaplan-Meier survival analysis was performed to assess survival benefit within the treatment group as compared to controls. Differences between survival curves were calculated using a log-rank test. Brains were resected at 6 hours following completion of the treatment and placed in 4% paraformaldthyde for subsequent histological examination.

In data set [14] the test system is zebrafish larvae. The data set is described as follows: In vivo toxicity assay in zebrafish larvae. The protocol: Control larvae were exposed to 2% DMSO. Survival and delays in development and morphologic abnormalities were recorded at three time-points (24, 48, and 72 h of treatment). For each condition, groups of 20 larvae were analyzed in triplicates totalizing 420 subjects and 60 controls. Two-way ANOVA was used to analyze the results.

In data set [15] the test system is breast cancer cells. The note with it: Sampson et al.; cited from earlier work.
In data set [16] the target is TEK (Homo sapiens, UniProt Q02763). The data set is described as follows: Kinase activity screening (SelectScreen Kinase Profiling). Type of data set: biochemical. The note with it: 10-point titration.
Sequence of TEK (Q02763 23-1124): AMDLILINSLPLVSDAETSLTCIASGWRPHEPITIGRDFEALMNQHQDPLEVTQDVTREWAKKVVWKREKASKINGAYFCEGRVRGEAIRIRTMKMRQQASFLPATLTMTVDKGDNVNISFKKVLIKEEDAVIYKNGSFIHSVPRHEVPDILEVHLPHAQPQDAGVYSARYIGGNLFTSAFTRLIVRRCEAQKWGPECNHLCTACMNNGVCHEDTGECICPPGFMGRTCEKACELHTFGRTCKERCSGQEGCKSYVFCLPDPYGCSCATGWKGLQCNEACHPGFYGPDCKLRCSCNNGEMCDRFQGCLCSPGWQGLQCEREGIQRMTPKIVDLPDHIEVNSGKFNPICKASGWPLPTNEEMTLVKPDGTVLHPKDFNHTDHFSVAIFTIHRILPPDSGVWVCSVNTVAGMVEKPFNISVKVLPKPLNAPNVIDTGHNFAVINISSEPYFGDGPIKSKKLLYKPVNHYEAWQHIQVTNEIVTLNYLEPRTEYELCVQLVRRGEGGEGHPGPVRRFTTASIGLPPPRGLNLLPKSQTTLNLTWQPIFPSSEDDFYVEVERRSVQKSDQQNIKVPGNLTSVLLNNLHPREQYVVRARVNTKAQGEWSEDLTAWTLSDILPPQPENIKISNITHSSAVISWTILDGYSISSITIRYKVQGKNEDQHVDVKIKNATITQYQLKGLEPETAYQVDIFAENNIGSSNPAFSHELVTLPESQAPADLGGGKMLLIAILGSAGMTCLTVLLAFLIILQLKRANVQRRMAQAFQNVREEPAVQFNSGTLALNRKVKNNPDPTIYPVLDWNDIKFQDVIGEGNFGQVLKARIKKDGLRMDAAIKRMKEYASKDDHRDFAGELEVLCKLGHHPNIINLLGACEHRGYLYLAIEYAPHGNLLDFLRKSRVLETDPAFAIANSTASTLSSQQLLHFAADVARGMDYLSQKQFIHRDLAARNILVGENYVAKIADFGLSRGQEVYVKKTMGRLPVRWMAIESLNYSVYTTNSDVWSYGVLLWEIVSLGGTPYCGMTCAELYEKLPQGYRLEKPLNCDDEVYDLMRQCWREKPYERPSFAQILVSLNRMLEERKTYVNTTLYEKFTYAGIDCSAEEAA
Description: as §5

Sequence of Aurora kinase B (Q96GD4 whole entry, species assumed): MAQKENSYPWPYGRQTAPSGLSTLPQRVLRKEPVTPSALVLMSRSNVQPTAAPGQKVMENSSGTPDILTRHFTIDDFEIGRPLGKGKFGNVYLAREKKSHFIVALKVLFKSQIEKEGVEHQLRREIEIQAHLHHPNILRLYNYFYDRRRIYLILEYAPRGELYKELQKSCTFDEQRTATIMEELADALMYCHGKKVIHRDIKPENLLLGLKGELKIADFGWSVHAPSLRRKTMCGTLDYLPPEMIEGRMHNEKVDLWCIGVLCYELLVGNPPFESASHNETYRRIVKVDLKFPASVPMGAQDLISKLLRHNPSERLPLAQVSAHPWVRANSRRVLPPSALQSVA

Regarding `COc1ccc2c(c1)[C@]1(C[C@H]1c1ccc3c(/C=C/c4ccc(CN5C[C@@H](C)O[C@@H](C)C5)cc4)n[nH]c3c1)C(=O)N2` [CFI-400945], the “cell proliferation (MTT)” value in [1] was “significantly decreased proliferation”; in data set [11], “significant reduction of cell proliferation”. Besides, the “nuclear area (FC)” value in data set [2] worked out at 2.79. Moreover, the “nuclear volume (FC)” value in [2] was determined as 4.69. In addition, the “cells undergoing cell death (apoptosis)” value in data set [3] is on record as “significantly higher percentage of cells undergoing cell death”. The compound further displayed a degree of polyploidy in data set [4] greater than 8 N. In addition, the polyploidy entry in data set [5] is listed as “not affecting”. The “activity against Aurora kinase B” value in data set [6] is reported as “certain activity”. For the same compound, the “colonies (clonogenic assay)” value in data set [7] is “complete absence of colonies”. Further, the tolerability entry in [8] is “well tolerated at doses up to 72 ma”. Further, the invasion and migration result in data set [9] is given as “no effects were observed”. Also, the IC50 in [10] is 48.7 nM; in data set [16], 109 nM. The colony formation entry in data set [12] is on record as “Complete inhibition of colony formation”. Also, the “growth of intracranial AT/RT tumors (bioluminescence)” value in [13] (p=0.0146) is “significantly reduced the growth”. Further, the survival entry in data set [13] (p=0.0477, log-rank) is on record as “extended the survival”. Besides, in data set [14] (10 nM to 20 μM for 3 days, over 400 larvae), the larvae deaths entry is listed as “no increase in larvae deaths”. Besides, the morphologic abnormalities result in data set [14] (extremely high concentrations (10 and 20 μM)) is “edema and body curvature were consistently observed”. For the same compound, the “effect on breast cancer cells” value in [15] was “cell death”.
